{"source": "paper PMC11172336", "about": "“Exploring Syndecan-4 and MLP and Their Interaction in Primary Cardiomyocytes and H9c2 Cells” (Cells, 2024)", "key": {"recombinant 6xHis-MLP-WT": {"molecular_target": "T1, recombinant 6xHis-MLP-WT (Homo sapiens, UniProt P50461)", "T1 construct": "All MLP recombinant proteins were full length and had 6xHis tags at the N-terminus; purchased GenScript Biotech Corp", "T1 sequence (P50461 1-194)": "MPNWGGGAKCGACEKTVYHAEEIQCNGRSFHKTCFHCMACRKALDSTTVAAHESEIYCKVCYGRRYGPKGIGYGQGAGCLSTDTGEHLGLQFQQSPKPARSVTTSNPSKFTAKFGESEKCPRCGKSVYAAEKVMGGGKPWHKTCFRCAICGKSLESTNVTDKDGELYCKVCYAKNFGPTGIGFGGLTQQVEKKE", "assay": "Biacore surface plasmon resonance of SDC4cyt and MLP", "assay_type": "binding", "details": "SPR, biotin-ahx-SDC4cyt immobilized on SA chip, 6xHis-MLP-WT injected, 1:1 Langmuir fit, n = 4", "experimental": "A streptavidin (SA) chip (BR1000032, Cytiva, Marlborough, MA, USA) was conditioned with three 1 min injections of 1 × Biacore running buffer (BR100826, Cytiva, Marlborough, MA, USA), and biotinylated SDC4cyt was immobilized at 133–350 resonance units (RUs). Recombinant 6xHis-MLP-WT was dialyzed into 1 × Biacore running buffer, and increasing concentrations were injected over the chip’s surface at a flow rate of 30 µL per minute for 180 s. For the different runs, concentration ranges spanned 2.9–14.6 nM, 1.2–100 nM, and 21.2–500 nM. The dissociation time was set to 600 s. Sensorgrams were analyzed using the Biacore X100 software (Version 2.0.1) with the assumption of 1:1 binding (Langmuir binding model).\nThe binding of SDC4cyt and MLP was further investigated with surface plasmon resonance (SPR), where a biotinylated SDC4cyt peptide was immobilized on an SA chip, and a serial dilution of recombinant 6xHis-MLP-WT protein was injected over the chip. The results were analyzed by fitting with a 1:1 interaction model (Langmuir). The dissociation equilibrium constant (kD) was 15.6 ± 7.8 nM, with an association constant (ka) of (8.7 ± 1.4) × 10^4 M^−1 s^−1 and a dissociation rate constant (kd) of (12.2 ± 5.3) × 10^−4 s^−1, indicating a strong interaction (Figure 2D). […]"}, "[1]": {"system": "cytoplasmic domain of syndecan-4 (SDC4cyt)", "assay": "ELISA-based assay, wells coated with MLP peptides, overlaid with biotin-SDC4cyt", "assay_type": "binding, human", "details": "for biotinylated SDC4cyt binding to mutated MLP peptide compared with MLP-WT peptide: 10 µg 30-mer peptide coated, SDC4cyt normalized to SDC4scram, related to MLP-WT (100%), n = 16, Mann-Whitney U; for biotin-SDC4cyt binding to 30 amino acid-long overlapping MLP-WT peptides: 10 µg peptide coated, biotinylated peptide 2-5 µM, 2 h 37 °C, absorbance 450 nm, normalized to SDC4scram, n = 12-28", "experimental": "(§1) 96-well ELISA microplates were coated with 10 µg of WT or mutated human 6xHis-MLP recombinant proteins or 10 µg of MLP peptides in PBS, and rotated at 4 °C overnight. Each well was rinsed with 0.05% Tween-20 in PBS (PBS-T) and blocked with 0.5% gelatin (G-1890, Sigma Merck, Darmstadt, Germany) for one hour at room temperature before incubation with the given biotinylated peptides at a final concentration of 2–5 µM for two hours at 37 °C with gentle agitation. Each well was then thoroughly washed with PBS-T five times before incubation with 100 µL of Biotin-HRP (A0185, Sigma Merck, Darmstadt, Germany) for 30 min at room temperature with gentle agitation. Each well was then washed with PBS-T 5 times before incubation with 100 µL of Ultra TMB substrate solution (34028, Thermo Fisher Scientific, Waltham, MA, USA) for 15–30 min at room temperature with gentle agitation to develop a blue color signal. The reaction was stopped with 100 µL of 2 M hydrochloric acid (HCl) per well (yellow color development). The absorbance of each well was read at 450 nm (Hidex sense multimodal microplate reader, Åbo, Finland).\nWe next aimed to identify the syndecan-4-MLP-binding domain(s). […]\nMultiple human mutations in MLP are associated with hypertrophic cardiomyopathy (HCM) or dilated cardiomyopathy (DCM) (illustrated in Figure 2E). […] To test whether syndecan-4 binding to MLP was affected by any of the HCM- or DCM-associated mutations, we used an ELISA-based assay, where wells were coated with WT or mutated MLP peptide sequences."}, "human MLP": {"system": "human MLP", "assay": "Peptide array overlay of MLP 20-mers with biotinylated peptide", "assay_type": "binding", "details": "20-mers with 3 amino acid offset, overlay overnight at 4 °C, n = 3", "experimental": "Human, rat, and mouse MLP were synthesized as overlapping 20-mers with three amino acid offsets onto cellulose membranes by an automated MultiPep peptide synthesizer (INTAVIS Bioanalytical instruments AG, Tübingen, Germany). After blocking, membranes were incubated with a biotin-ahx-SDC4cyt (SDC4cyt) peptide, a scrambled biotin-ahx-SDC4cyt (SDC4scram), a custom-made MLP antibody (#R06991, GenScript Biotech Corp, Piscataway, NJ, USA), or a commercially available MLP antibody (sc-166930, Santa Cruz, Dallas, TX, USA) overnight at 4 °C. The remaining consequent steps were identical to those performed for immunoblotting, as described further below.\nWe next aimed to identify the syndecan-4-MLP-binding domain(s). A biotinylated peptide covering the cytoplasmic domain of syndecan-4 (SDC4cyt) was overlaid onto 20’mer overlapping peptides covering the full length of human MLP."}, "recombinant 6xHis-MLP": {"system": "recombinant 6xHis-MLP", "assay": "ELISA-based MLP self-association assay, coated recombinant 6xHis-MLP overlaid with biotinylated MLP-WT peptides", "assay_type": "binding, human", "details": "10 µg protein coated; biotinylated peptide 2-5 µM; PBS-only wells subtracted; n = 8", "experimental": "as §1\nTo more precisely map the sites of self-association in MLP, an ELISA-based screening method was used. Full-length recombinant 6xHis-MLP-WT protein was coated into wells and overlayed with biotinylated overlapping MLP-WT peptides, together representing the full-length MLP sequence. […] Furthermore, to test whether mutations could affect self-association, wells were instead coated with mutated recombinant 6xHis-MLP proteins and overlayed with the biotinylated MLP-WT peptides, mimicking a heterozygous interaction. Compared to the WT recombinant protein, MLP peptides aa 50–79 and 125–154 bound weaker to most of the mutated MLP recombinant proteins, except for the HCM-associated L44P (at aa 125–154) and C58G mutations (at aa 50–79 and […]) (Figure 5D, left and right panel). A larger increase in N- and C-terminal binding was also observed for C58G."}}, "note": "Where a SMILES comes first, the peptide text is derived from it. Where no end group is shown, it is not given here. The star is where a group is joined. Biotin = O=C1N[C@H]2[C@H](CS[C@H]2CCCCC(=O)*)N1; Ahx = NCCCCCC(=O)O", "data": [{"molecule": "CC[C@H](C)[C@H](NC(=O)[C@@H]1CCCN1C(=O)[C@H](CCCCN)NC(=O)[C@H](CCCCN)NC(=O)CNC(=O)[C@H](CC(C)C)NC(=O)[C@H](CC(=O)O)NC(=O)[C@H](Cc1ccc(O)cc1)NC(=O)[C@H](CO)NC(=O)CNC(=O)[C@H](CCC(=O)O)NC(=O)[C@H](CC(=O)O)NC(=O)[C@H](CCCCN)NC(=O)[C@H](CCCCN)NC(=O)[C@H](CCCCN)NC(=O)[C@H](CCSC)NC(=O)[C@H](CCCNC(=N)N)NC(=O)CCCCCNC(=O)CCCC[C@@H]1SC[C@@H]2NC(=O)N[C@@H]21)C(=O)N[C@@H](Cc1ccc(O)cc1)C(=O)N[C@@H](CCCCN)C(=O)N[C@@H](CCCCN)C(=O)N[C@@H](C)C(=O)N1CCC[C@H]1C(=O)N[C@H](C(=O)N[C@@H](CC(N)=O)C(=O)N[C@@H](CCC(=O)O)C(=O)N[C@@H](Cc1ccccc1)C(=O)N[C@@H](Cc1ccc(O)cc1)C(=O)N[C@@H](C)C(=O)O)[C@@H](C)O", "note": "[SDC4cyt] ({Biotin-Ahx}-RMKKKDEGSYDLGKKPIYKKAPTNEFYA-OH)", "values": [{"measurement": "kon", "setting": "recombinant 6xHis-MLP-WT; read-out: association constant (ka)", "result": 87000, "unit": "M⁻¹ s⁻¹"}, {"measurement": "koff", "setting": "recombinant 6xHis-MLP-WT; read-out: dissociation rate constant (kd)", "result": 0.00122, "unit": "s⁻¹"}]}, {"molecule": "AAHERGIYCKVCYGRRYGPKGIGYGQGAGC [MLP-S54R,E55G, 30-mer human MLP peptide with S54R,E55G mutation]", "values": [{"measurement": "biotinylated SDC4cyt binding to mutated MLP peptide compared with MLP-WT peptide", "setting": "[1]", "result": "significantly weaker"}]}, {"molecule": "AAHESEIYCKVCYGCRYGPKGIGYGQGAGC [MLP-R64C, 30-mer human MLP peptide with R64C mutation]", "values": [{"measurement": "biotinylated SDC4cyt binding to mutated MLP peptide compared with MLP-WT peptide", "setting": "[1]", "result": "tendency of reduced binding"}]}, {"molecule": "AAHESEIYCKVCYGRRYGPKGIRYGQGAGC [MLP-G72R, 30-mer human MLP peptide with G72R mutation]", "values": [{"measurement": "biotinylated SDC4cyt binding to mutated MLP peptide compared with MLP-WT peptide", "setting": "[1]", "result": "tendency of reduced binding"}]}, {"molecule": "AAHESEIYCKVCYGRRYGPRGIGYGQGAGC [MLP-K69R, 30-mer human MLP peptide with K69R mutation]", "values": [{"measurement": "biotinylated SDC4cyt binding to mutated MLP peptide compared with MLP-WT peptide", "setting": "[1]", "result": "tendency of reduced binding"}]}, {"molecule": "CNGRSFHKTCFHCMACRKALDRTTVAAHES [MLP-S46R, 30-mer human MLP peptide with S46R mutation]", "values": [{"measurement": "biotinylated SDC4cyt binding to mutated MLP peptide compared with MLP-WT peptide", "setting": "[1]", "result": "significantly weaker"}]}, {"molecule": "CNGRSFHKTCFHCMACRKAPDSTTVAAHES [MLP-L44P, 30-mer human MLP peptide with L44P mutation]", "values": [{"measurement": "biotinylated SDC4cyt binding to mutated MLP peptide compared with MLP-WT peptide", "setting": "[1]", "result": "significantly weaker"}]}, {"molecule": "GTKYPKMDRGKLFKYKAKPEDNESAYIK [SDC4scram]", "values": [{"measurement": "binding to 20-mer overlapping human MLP peptides on membrane", "setting": "human MLP", "result": "did not recognize any human MLP sequence"}]}, {"molecule": "MLP-WT peptide aa 25–54: 30 amino acid-long overlapping MLP-WT peptide, amino acids 25–54 (CNGRSFHKTCFHCMACRKALDSTTVAAHES)", "values": [{"measurement": "biotin-SDC4cyt binding to 30 amino acid-long overlapping MLP-WT peptides", "setting": "[1]", "result": "binding was confirmed"}]}, {"molecule": "MLP-WT peptide aa 50–79: 30 amino acid-long overlapping MLP-WT peptide, amino acids 50–79, with or without N-terminal biotin (AAHESEIYCKVCYGRRYGPKGIGYGQGAGC)", "values": [{"measurement": "biotin-SDC4cyt binding to 30 amino acid-long overlapping MLP-WT peptides", "setting": "[1]", "result": "binding was confirmed"}, {"measurement": "binding of biotinylated MLP-WT peptide to full-length recombinant 6xHis-MLP-WT (self-association)", "setting": "recombinant 6xHis-MLP", "result": "strongest binding"}]}, {"molecule": "MLP-WT peptide aa 100–129: 30 amino acid-long overlapping MLP-WT peptide, amino acids 100–129, with or without N-terminal biotin (RSVTTSNPSKFTAKFGESEKCPRCGKSVYA)", "values": [{"measurement": "biotin-SDC4cyt binding to 30 amino acid-long overlapping MLP-WT peptides", "setting": "[1]", "result": "binding was confirmed"}, {"measurement": "binding of biotinylated MLP-WT peptide to full-length recombinant 6xHis-MLP-WT (self-association)", "setting": "recombinant 6xHis-MLP", "result": "Minimal binding"}]}, {"molecule": "MLP-WT peptide aa 125–154: 30 amino acid-long overlapping MLP-WT peptide, amino acids 125–154, with or without N-terminal biotin", "values": [{"measurement": "biotin-SDC4cyt binding to 30 amino acid-long overlapping MLP-WT peptides", "setting": "[1]", "result": "binding was confirmed"}, {"measurement": "binding of biotinylated MLP-WT peptide to full-length recombinant 6xHis-MLP-WT (self-association)", "setting": "recombinant 6xHis-MLP", "result": "strongest binding"}]}, {"molecule": "MLP-WT peptide aa 165–194: biotinylated 30-mer MLP-WT peptide, amino acids 165–194 (Biotin-ELYCKVCYAKNFGPTGIGFGGLTQQVEKKE; cysteine pairing not given here)", "values": [{"measurement": "binding of biotinylated MLP-WT peptide to full-length recombinant 6xHis-MLP-WT (self-association)", "setting": "recombinant 6xHis-MLP", "result": "Minimal binding"}]}, {"molecule": "MPNRGGGAKCGACEKTVYHAEEIQCNGRSF [MLP-W4R, 30-mer human MLP peptide with W4R mutation]", "values": [{"measurement": "biotinylated SDC4cyt binding to mutated MLP peptide compared with MLP-WT peptide", "setting": "[1]", "result": "did not alter the binding"}]}]}
